In patent EP0195116A2, “Compound having antibacterial and antimycotic activities, preparation thereof and pharmaceutical compositions containing it” (ISTITUTO FARMACO BIOLOGICO RIPARI GERO S.r.l., priority 1985, dated 1986):
≈ marks a conversion by molar mass, not a printed value.

Key:
Aspergillus fumigatus 1 = test: In vitro antimycotic activity (M.I.C.), scalar dilutions in liquid medium on Microtiter plates; assay type: cell-based
Experimental: (§1) The method is that of scalar dilutions of the test compounds on Microtiter plates, in a 1:2 dilution ratio. Suspensions (titre: 10^4) of fungal sporae and Candida cells, grown on Sabouraud, and Dextrose Agar, were collected at the moment of use in the same medium used for the test and inoculated by means of a multi inoculation Microtiter device.
(§2) M.I.C. values were determined by means of visual observation of fungal growth respectively after 24 hours (Candida albicans) and 48 and 72 hours (dermatophytes) incubation at 24°C.

Aspergillus fumigatus 2 = test: as above; assay type: cell-based
Experimental: as §1, §2

Candida albicans 1 = test: as above; assay type: cell-based
Experimental: as §1, §2

Candida albicans 2 = test: as above; assay type: cell-based
Experimental: as §1, §2

Candida albicans 3 = test: as above; assay type: cell-based
Experimental: as §1, §2

[1] = test system: Epidermophyton floccosum 1; test: as above; assay type: cell-based
Experimental: as §1, §2

Microsporum canis 1 = test: as above; assay type: cell-based
Experimental: as §1, §2

Microsporum canis 2 = test: as above; assay type: cell-based; settings: hospital isolate, 48 and 72 hours incubation at 24°C
Experimental: as §1, §2

[2] = test system: Tricophyton mentagrophites 1; test: as above; assay type: cell-based
Experimental: as §1, §2

Escherichia coli OMI 16 = test: In vitro antibacterial activity (M.I.C.), scalar dilutions on agar plates; assay type: cell-based; settings: 18 hours incubation at 37°C
Experimental: (§3) The method was that of scalar dilutions of the test products on agar plates, in a 1:2 dilution ratio. Bacterial suspensions grown overnight in Brain Heart Infusion DIFCO, were diluted 1/100 in new culture medium and inoculated by means of a multiinoculation device.
(§4) M.I.C. values were determined by visual observation of bacterial growth, after 18 hours incubation, at 37°C.

Escherichia coli OMI 17 = test: as above; assay type: cell-based; settings: 18 hours incubation at 37°C
Experimental: as §3, §4

[3] = test system: Klebsiella pneumoniae ATCC 1003; test: as above; assay type: cell-based
Experimental: as §3, §4

Proteus vulgaris OMI 4 = test: as above; assay type: cell-based; settings: 18 hours incubation at 37°C
Experimental: as §3, §4

[4] = test system: Pseudomonas aeruginosa OMI 1; test: as above; assay type: cell-based; settings: 18 hours incubation at 37°C
Experimental: as §3, §4

Sarcina lutea ATCC 9341 = test: as above; assay type: cell-based; settings: 18 hours incubation at 37°C
Experimental: as §3, §4

Staphylococcus aureus 35 = test: as above; assay type: cell-based
Experimental: as §3, §4

Staphylococcus aureus 38 = test: as above; assay type: cell-based
Experimental: as §3, §4

[5] = test system: Staphylococcus aureus ATCC 9144; test: as above; assay type: cell-based
Experimental: as §3, §4

[6] = test system: Streptococcus faecalis OMI 1; test: as above; assay type: cell-based; settings: 18 hours incubation at 37°C
Experimental: as §3, §4

[7] = test system: Streptococcus faecalis OMI 2; test: as above; assay type: cell-based; settings: 18 hours incubation at 37°C
Experimental: as §3, §4

[8] = test system: Streptococcus pyogenes A/1; test: as above; assay type: cell-based
Experimental: as §3, §4

Streptococcus pyogenes C = test: as above; assay type: cell-based
Experimental: as §3, §4

[9] = Pharmacokinetics in the rat by oral administration (serum and urinary concentrations by agar-well diffusion bioassay)

## 1-{[2-(2,4-dichlorophenyl)-2-(2,4-dichlorophenyl)methoxy]ethyl}-1-pivaloyloxymethyl-lH-imidazolium chloride [RG 024]
Aspergillus fumigatus 1; Aspergillus fumigatus 1, hospital isolate, liquid medium, incubation at 24°C
  M.I.C.: 6.25 µg/mL
Aspergillus fumigatus 2; Aspergillus fumigatus 2, hospital isolate, liquid medium, incubation at 24°C
  M.I.C.: 3.12 µg/mL
Candida albicans 1; Candida albicans 1, hospital isolate, liquid medium, 24 hours incubation at 24°C
  M.I.C.: 1.56 µg/mL
Candida albicans 2; Candida albicans 2, hospital isolate, liquid medium, 24 hours incubation at 24°C
  M.I.C.: 0.39 µg/mL
Candida albicans 3; Candida albicans 3, hospital isolate, liquid medium, 24 hours incubation at 24°C
  M.I.C.: 0.78 µg/mL
[1]; Epidermophyton floccosum 1, hospital isolate, liquid medium, 48 and 72 hours incubation at 24°C
  M.I.C.: 1.56 µg/mL
Microsporum canis 1; Microsporum canis 1, hospital isolate, liquid medium, 48 and 72 hours incubation at 24°C
  M.I.C.: 12.5 µg/mL
Microsporum canis 2
  M.I.C.: 6.12 µg/mL
[2]; Tricophyton mentagrophites 1, hospital isolate, liquid medium, 48 and 72 hours incubation at 24°C
  M.I.C.: 0.78 µg/mL
Escherichia coli OMI 16; Isosensitest agar
  M.I.C.: 6.25 µg/mL
Escherichia coli OMI 17; Isosensitest agar
  M.I.C.: 6.25 µg/mL
[3]; Klebsiella pneumoniae ATCC 1003, Isosensitest agar, 18 hours incubation at 37°C
  M.I.C.: 12.5 µg/mL
Proteus vulgaris OMI 4; Isosensitest agar
  M.I.C.: 50 µg/mL
[4]; Isosensitest agar
  M.I.C.: >200 µg/mL
Sarcina lutea ATCC 9341; Isosensitest agar
  M.I.C.: 0.19 µg/mL
Staphylococcus aureus 35; Staphylococcus aureus 35, Isosensitest agar, 18 hours incubation at 37°C
  M.I.C.: 0.39 µg/mL
Staphylococcus aureus 38; Staphylococcus aureus 38, Isosensitest agar, 18 hours incubation at 37°C
  M.I.C.: 0.19 µg/mL
[5]; Staphylococcus aureus ATCC 9144, Isosensitest agar, 18 hours incubation at 37°C
  M.I.C.: 0.19 µg/mL
[6]; Isosensitest agar
  M.I.C.: 6.25 µg/mL
[7]; Isosensitest agar
  M.I.C.: 6.25 µg/mL
[8]; Streptococcus pyogenes A/1, Isosensitest agar, 18 hours incubation at 37°C
  M.I.C.: 0.19 µg/mL
Streptococcus pyogenes C; Streptococcus pyogenes C, Isosensitest agar, 18 hours incubation at 37°C
  M.I.C.: 0.39 µg/mL

## Clc1ccc(COC(Cn2ccnc2)c2ccc(Cl)cc2Cl)c(Cl)c1 (stereo not drawn) [miconazole]
Aspergillus fumigatus 1; Aspergillus fumigatus, 1
  MIC: 6.25 mg/L (≈ 15 µM)
Aspergillus fumigatus 2; Aspergillus fumigatus, 2
  MIC: 6.25 mg/L (≈ 15 µM)
Candida albicans 1; Candida albicans, 1, 24 h
  MIC: 3.12 mg/L (≈ 7.5 µM)
Candida albicans 2; Candida albicans, 2, 24 h
  MIC: 1.56 mg/L (≈ 3.75 µM)
Candida albicans 3; Candida albicans, 3, 24 h
  MIC: 1.56 mg/L (≈ 3.75 µM)
[1]; Epidermophyton floccosum, 1
  MIC: 1.56 mg/L (≈ 3.75 µM)
Microsporum canis 1; Microsporum canis, 1
  MIC: 12.5 mg/L (≈ 30 µM)
Microsporum canis 2
  MIC: 6.12 mg/L (≈ 14.7 µM)
[2]
  MIC: 1.56 mg/L (≈ 3.75 µM)
Escherichia coli OMI 16; OMI16, Isosensitest agar
  MIC: 25 mg/L (≈ 60.1 µM)
Escherichia coli OMI 17; OMI17, Isosensitest agar
  MIC: 12.5 mg/L (≈ 30 µM)
[3]; Klebsiella pneumoniae, ATCC1003, 18 h
  MIC: 25 mg/L (≈ 60.1 µM)
Proteus vulgaris OMI 4; OMI4, Isosensitest agar
  MIC: 100 mg/L (≈ 240 µM)
[4]; OMI1, Isosensitest agar
  MIC: > 200 mg/L
Sarcina lutea ATCC 9341; Micrococcus luteus, ATCC9341, Isosensitest agar
  MIC: 0.19 mg/L (≈ 0.457 µM)
Staphylococcus aureus 35; Staphylococcus aureus, 35, 18 h
  MIC: 6.25 mg/L (≈ 15 µM)
Staphylococcus aureus 38; Staphylococcus aureus, 38, 18 h
  MIC: 0.39 mg/L (≈ 0.937 µM)
[5]; Staphylococcus aureus, ATCC9144, 18 h
  MIC: 0.39 mg/L (≈ 0.937 µM)
[6]; Enterococcus faecalis, OMI1, Isosensitest agar
  MIC: 12.5 mg/L (≈ 30 µM)
[7]; Enterococcus faecalis, OMI2, Isosensitest agar
  MIC: 6.25 mg/L (≈ 15 µM)
[8]; Streptococcus pyogenes, 18 h
  MIC: 0.39 mg/L (≈ 0.937 µM)
Streptococcus pyogenes C; Streptococcus pyogenes, 18 h
  MIC: 0.39 mg/L (≈ 0.937 µM)
[9]
  presence / detectability of the compound over time: may not be detected in significant amounts after the 6 ^th hour
